# Assay results as given in PubChem BioAssay AID1275 (Emory University Molecular Libraries Screening Center, 2008).
# Values joined by “and” are separate entries in the source; they are usually repeats but may differ in a detail not shown here. Equal values may be shown once. Active and inactive are the calls of the source. How the calls were made is not given here.
# Molecular target: Neutrophil cytosol factor 1 (Homo sapiens) (UniProt P14598)
# Test: blockers of ligand binding to p47phox – biochemical, NADPH oxidase regulatory subunit, fluorescence polarization, dose response (AID 1275)
# Conditions: p47phox binding inhibition
# Neutrophil cytosol factor 1 (Homo sapiens), sequence (P14598 whole entry, looked up): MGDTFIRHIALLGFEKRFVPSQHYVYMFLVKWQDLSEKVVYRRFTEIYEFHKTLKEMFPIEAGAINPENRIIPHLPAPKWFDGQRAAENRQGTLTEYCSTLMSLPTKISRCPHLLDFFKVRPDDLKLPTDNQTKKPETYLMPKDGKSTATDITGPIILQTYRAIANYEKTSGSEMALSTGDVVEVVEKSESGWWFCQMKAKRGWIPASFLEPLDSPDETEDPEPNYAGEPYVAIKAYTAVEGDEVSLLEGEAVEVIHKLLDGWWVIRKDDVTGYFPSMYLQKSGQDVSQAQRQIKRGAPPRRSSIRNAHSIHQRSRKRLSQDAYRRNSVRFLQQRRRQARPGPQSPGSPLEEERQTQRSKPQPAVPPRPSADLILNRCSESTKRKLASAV
row,SMILES,IC50
1,CC(C)N1CC2=C(OC(N)=C(C#N)C2c2cccnc2)/C(=C/c2cccnc2)C1 (stereo not given),inactive
2,Cc1ccccc1NC(=O)Cn1c(O)c(N=NC(=O)c2ccccc2O)c2ccccc21,> 50 µM (inactive)
3,COC(=O)c1cc(C(=O)OC)cc(N2C(=O)CC(NNC(=O)c3ccc(C)cc3)C2=O)c1 (stereo not given),> 50 µM (inactive)
4,CN(C)c1ccnc2c[cH-]cc12.[Fe].c1ccc(-[c-]2[c-](-c3ccccc3)[c-](-c3ccccc3)[c-](-c3ccccc3)[c-]2-c2ccccc2)cc1 (stereo not given),13.9 µM and 2.73 µM
5,Cc1ccc(/C(CSc2nccn2-c2ncc(C(F)(F)F)cc2Cl)=N\O)cc1,> 50 µM (inactive)
6,Cc1cc2c(C)nc(N/N=C/c3ccc([N+](=O)[O-])cc3)nc2o1,> 50 µM (inactive)
7,COc1nc(N/N=C/c2ccc(-c3cccc([N+](=O)[O-])c3)o2)nc(N2CCOCC2)n1,> 50 µM (inactive)
8,CCOC(=O)C1=C(c2ccccc2)NC(N)=NC1c1ccc(OCc2ccc(C(=O)OC)cc2)cc1 (stereo not given),6.96 µM
9,N#CC(=C=[N-])c1nc2ccccc2nc1-[n+]1cccc(NC(=O)c2cccs2)c1,14.8 µM
10,CC(C)Cc1ccc(/C(=N/O)C(=O)O)s1,> 50 µM (inactive)
11,O=C1CCCC(O)=C1N=Nc1ccc(C(=O)O)cc1,> 50 µM (inactive)
12,CCOC(=O)/C(C)=C1\NC(C)(C)Cc2ccccc21,> 50 µM (inactive)
13,CCOc1ccc(C2CC(c3c(O)n(C)c(=O)n(C)c3=O)=NN2)cc1 (stereo not given),> 50 µM (inactive)
14,O=c1[nH]c(O)c(/C=C2/C=CC(c3cc(Cl)ccc3Cl)=N2)c(=O)[nH]1,> 50 µM (inactive)
15,Nc1cc(Cl)ccc1N1C(=O)CCC1=O,> 50 µM (inactive)
16,COc1ccc(-c2cn[nH]c2-c2ccc(OCc3ccc([N+](=O)[O-])cc3)cc2O)cc1,> 50 µM (inactive)
17,C=CCNC(=S)N1CCN(CCN=CC2=C(O)CC(c3ccco3)CC2=O)CC1 (stereo not given),> 50 µM (inactive)
18,Cc1ccc(C(NC(=O)N2CCOCC2)=C(Cl)Cl)cc1F,> 50 µM (inactive)
19,O=c1cnnc(N/N=C/c2c[nH]c3ccccc23)[nH]1,> 50 µM (inactive)
20,CCOc1ccc(-n2c(SCC(=O)Nc3ccc(Br)cc3)nc3n[nH]c(C)c3c2=N)cc1,> 50 µM (inactive)
21,Cc1nc2ccccc2n2c(O)c(CC(=O)O)cc12,inactive
22,O=C1OCC=C1NNC(=O)c1cccnc1,> 50 µM (inactive)
23,CC1(C)CC(=O)C2=C(C1)Nc1cc3c(cc1C2c1ccc2c(c1)OCO2)OCO3 (stereo not given),> 50 µM (inactive)
24,CCN=C(Nc1ccc2c(c1)OCO2)SC1CC(=O)N(c2ccccc2F)C1=O (stereo not given),> 50 µM (inactive)
25,C/C(=N\Nc1ccc(S(N)(=O)=O)cc1[N+](=O)[O-])c1ccc2c(c1)OCO2,> 50 µM (inactive)

row,SMILES,IC50
1,COc1ccc(N=C2O/C(=C/c3sc(=S)n(CC4CCCO4)c3O)N=C2C#N)cc1 (stereo not given),16 µM
2,O=c1oc2ccccc2c(O)c1/C=C1\C=Nc2ccccc21,> 50 µM (inactive)
3,N#CC(=C=[N-])c1nc2ccccc2nc1-[n+]1cccc(NC(=O)c2ccccc2)c1,> 50 µM (inactive) and 24.2 µM
4,CC(=O)N1C(=O)C2(C(C#N)=C(N)Oc3n[nH]c(-c4ccccn4)c32)c2ccccc21 (stereo not given),> 50 µM (inactive)
5,COc1ccc(-c2cnnc(N/N=C/c3ccc(-c4ccc([N+](=O)[O-])cc4)o3)n2)cc1,> 50 µM (inactive)
6,CCc1cc2c(=O)nc3n(c2s1)Cc1ccccc1/C3=C(/O)c1ccccc1Cl,> 50 µM (inactive)
7,C[c-]1[c-](C)[c-](C)[c-](C)[c-]1C.[Fe].c1cc2nccc(N3CCCC3)[c-]2c1 (stereo not given),> 50 µM (inactive)
8,O=C(N=Nc1c(O)n(C2OC(=O)c3ccccc32)c2ccccc12)c1ccco1 (stereo not given),> 50 µM (inactive)
9,Cc1ccc(/C=N/Nc2ccnc3cc(Cl)ccc23)c(C)c1,> 50 µM (inactive)
10,Cc1ccc(C(=O)C2=C(O)C(=O)N(Cc3ccccc3)C2c2cccnc2)o1 (stereo not given),> 50 µM (inactive)
11,CC1=NN(c2ccccc2)C(=O)/C1=C/C=C/c1ccc(N(C)C)cc1,> 50 µM (inactive)
12,COc1ccc(C2C(C(=O)c3ccccc3)=C(C)Nc3nc4ccccc4n32)cc1OC (stereo not given),> 50 µM (inactive)
13,CN(C)CC(C)(C)CN=Cc1c(O)[nH]c2ccccc12,> 50 µM (inactive)
14,CCOC(=O)C1=C(c2ccccc2)NC(N)=NC1c1ccc(OCc2ccc(Cl)cc2)c(OC)c1 (stereo not given),4.14 µM
15,CCOc1ccc2c(c1)C(c1cccs1)=NNC(c1cccnc1)=N2,> 50 µM (inactive)
16,CCOC(=O)C1=C(O)CSC1=Nc1ccc(Cl)cc1,> 50 µM (inactive)
17,Oc1[nH]c(=S)sc1/C=C1\C(c2ccccc2)=Nc2ccccc21,inactive
18,Clc1ccc(/C=N/Nc2nc(Cl)nc3ccccc23)cc1,> 50 µM (inactive)
19,CCOc1ccc(N/C=C/C(=O)c2ccccc2)c([N+](=O)[O-])c1,> 50 µM (inactive)
20,CSc1sc(C)cc1C1C(C#N)=C(N)N(c2cccnc2)C2=C1C(=O)CCC2 (stereo not given),> 50 µM (inactive)
21,CCOC(=O)C1=C(O)c2ccccc2C(=O)/C1=C\c1ccc(CC)cc1,> 50 µM (inactive)
22,Cc1cccc(N=Nc2c(C)c(C#N)c(O)[nH]c2=O)c1,> 50 µM (inactive)
23,N=C1CCC(=N)c2c1c(O)c1ccccc1c2O,0.68 µM
24,CC1=C(C#N)c2nc(N)c(C#N)c(C)c2/C1=C\c1ccc(-c2ccccc2C(=O)O)o1,26.9 µM
25,O=C(Cn1c(O)c(/C=C2\C=Nc3ccc(Br)cc32)sc1=O)N1CCCC1,> 50 µM (inactive)

row,SMILES,IC50
1,O=c1[nH]c(=S)[nH]c(O)c1N=Nc1ccc(-c2ccccc2)cc1[N+](=O)[O-],8.05 µM
2,O=C(N=Nc1c(O)n(Cc2ccccc2)c2ccccc12)c1cc2ccccc2cc1O,> 50 µM (inactive)
3,O=[N+]([O-])c1ccc(N/N=C\c2cccn2-c2ccccc2)nc1,> 50 µM (inactive)
4,CCOC(=O)C1=C(COc2ccc(C)cc2)NC(=O)NC1c1cc(C)ccc1C (stereo not given),> 50 µM (inactive)
5,N#Cc1ccc(N/N=C/c2cn(-c3ccccc3)nc2-c2ccccc2)c([N+](=O)[O-])c1,> 50 µM (inactive)
6,CC1CCCCN1C(=O)C12CCC(C)(/C(=N/O)C1)C2(C)C (stereo not given),> 50 µM (inactive)
7,CCOC(=O)c1ccc(N2C(=O)CC(Nc3ccc(O)cc3)C2=O)cc1 (stereo not given),23.7 µM
8,CCN(CC)c1ccc(/C=N/c2sc3c(c2C#N)C2CCN3CC2)c(O)c1,6.96 µM
9,C/C(N)=C(/C#N)C(=O)CSc1nnc(-c2ccc3c(c2)OCO3)o1,> 50 µM (inactive)
10,N#CC1=C(N)OC2=C(CN(Cc3ccccc3)C/C2=C\c2cccnc2)C1c1cccnc1 (stereo not given),3.5 µM
11,O=C(N=Nc1c(O)[nH]c2ccc(Cl)cc12)c1cc(-c2cccs2)nc2ccccc12,> 50 µM (inactive)
12,Cc1cccc(NC(=O)Cn2c(O)c(N=NC(=O)c3ccccc3O)c3ccccc32)c1,> 50 µM (inactive)
13,O=C1Nc2ccccc2/C1=N/N=C/c1ccc(-c2ccc([N+](=O)[O-])cc2)o1,> 50 µM (inactive)
14,COc1ccc(C2C(C#N)=C(N)Oc3cc4c(cc32)OCO4)cc1 (stereo not given),> 50 µM (inactive)
15,COCc1cc(C)nc(N/N=C/c2ccc(-c3ccc(Cl)cc3[N+](=O)[O-])o2)c1C#N,> 50 µM (inactive)
16,C(=N\Nc1nc(Nc2ccccc2)nc(N2CCCCC2)n1)/c1ccco1,> 50 µM (inactive)
17,O=[N+]([O-])c1ccc(N=Cc2c(O)ccc3ccccc23)cc1,4.58 µM
18,COc1cc(/C=N/NC(=O)c2ccc(CN3c4cccc5cccc(c45)S3(=O)=O)cc2)cc(OC)c1O,> 50 µM (inactive)
19,CCOc1ccc(N/C=C/C(=O)c2ccc(C)cc2)c([N+](=O)[O-])c1,> 50 µM (inactive)
20,CCOC(=O)C(=CNc1ccc(Oc2cccnc2)nc1)C(=O)OCC,> 50 µM (inactive)
21,Cn1c(O)c(/C=C2\N=c3ccccc3=C2CCNC(=S)NC2CC2)c(=O)n(C)c1=O,14.1 µM
22,Cc1ccc(NC(=O)Cn2c(O)c(N=NC(=O)c3cc4ccccc4cc3O)c3ccccc32)cc1,> 50 µM (inactive)
23,O=C(N=Nc1c(O)[nH]c2ccc(Br)cc12)c1cc(-c2cccs2)nc2ccccc12,> 50 µM (inactive)
24,Cc1ccc(-n2c(O)c(/C=N/Nc3ccccc3)c(=O)[nH]c2=O)cc1C,> 50 µM (inactive)
25,COc1ccc(N2C(=O)CNC2=S)cc1,> 50 µM (inactive)
